Data on one compound can be found in patent publication US7960173B2, “Cardiac conduction system cells and uses thereof” (Board of Supervisors of Louisiana State University and …, priority 2004, dated 2011).

For the assay, the system named is cGATA6-minK co-positive cells. Nature of the assay: Whole-cell patch-clamp of hyperpolarization-activated (If) current before and after cesium chloride. It counts as cell-based, murine. Conditions: 10 mM cesium chloride, n=16 cells, FIG. 3(E),(F). The method, then: On the day prior to recording, EBs were dispersed and plated onto glass coverslips coated with 0.1% gelatin. On the following day, coverslips were transferred to a recording chamber mounted on an inverted microscope (Nikon Diaphot-TMD) and superfused with extracellular recording solution. All experiments were conducted at room temperature (22-25° C.). Whole-cell voltage-clamp and current-clamp experiments were carried out using a standard Giga-seal patch-clamp method (Hamill O P et al. Pflugers Arch 391 (1981) 85). Recording electrodes were fabricated from 1.5 mm thin-walled borosilicate glass tubes (#7052. Garner Glass, Claremont, Calif.), using a Flaming-Brown microelectrode puller (P-97, Sutter Instruments, Novato, Calif.) and heat-polished before use. […] Recordings were performed using an Axoclamp 2B patch-clamp amplifier (Axon Instruments, Union City, Calif.). Data were filtered at 2 kHz, and data were acquired using Clampex 8 software (Axon Instruments). […]
In FIG. 3 (B) cGATA6-minK cells with morphologies similar to contracting atrial myocytes display atrial-like action potential waveforms (FIG. 3D). […] (F) Current-voltage relationship for hyperpolarization-activated currents measured in cGATA6-minK co-positive cells before (triangles) and after (squares) treatment with 10 mM cesium chloride. […]
A general note: Patch clamp records ionic current or voltage across a cell membrane.

Regarding `[Cl-].[Cs+]` [cesium chloride], the “sensitivity of hyperpolarization-activated cation current (If) to cesium” value is given as “cesium-sensitive”.
